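Test compounds were applied to cells in 96-well plates for 48 hours at 5 doses. Abbreviation: GI50, concentration required for 50% inhibition of growth.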 Active and inactive are the calls of the source. Cut-off read from the data, not from the text of the source: active = GI50 up to about 1.1 µM and inactive = higher.
How the values were obtained:
Assay in all cases: NCI anticancer screen, dose series, 48 h
786-0 = system: 786-0
DLD-1 = system: DLD-1
HCC 2998 = system: HCC 2998
HCT-15 = system: HCT-15
HOP-62 = system: HOP-62
HT-29 = system: HT-29
IGROV-1 = system: IGROV-1
MOLT-4 = system: MOLT-4
Malme-3M = system: Malme-3M
OVCAR-3 = system: OVCAR-3
SF-268 = system: SF-268
SK-MEL-28 = system: SK-MEL-28
SK-MEL-2 = system: SK-MEL-2
SK-OV-3 = system: SK-OV-3
SNB-19 = system: SNB-19
SW-620 = system: SW-620
UO-31 = system: UO-31
MCF7 = system: MCF7
MDA-MB-231 = system: MDA-MB-231
T47D = system: T47D

SMILES	GI50 (786-0)	GI50 (DLD-1)	GI50 (HCC 2998)	GI50 (HCT-15)	GI50 (HOP-62)	GI50 (HT-29)	GI50 (IGROV-1)	GI50 (MOLT-4)	GI50 (Malme-3M)	GI50 (OVCAR-3)	GI50 (SF-268)	GI50 (SK-MEL-28)	GI50 (SK-MEL-2)	GI50 (SK-OV-3)	GI50 (SNB-19)	GI50 (SW-620)	GI50 (UO-31)	GI50 (MCF7)	GI50 (MDA-MB-231)	GI50 (T47D)
CC(C)OCN1COCN/C1=N/C#N	98.6 µM (inactive)	26.4 µM (inactive)	> 100 µM (inactive)	17.7 µM	> 100 µM (inactive)	78.3 µM (inactive)	> 100 µM (inactive)	> 100 µM (inactive)	> 100 µM (inactive)	> 100 µM (inactive)	> 100 µM (inactive)	> 100 µM (inactive)	> 100 µM (inactive)	> 100 µM (inactive)	> 100 µM (inactive)	18.3 µM (inactive)	> 100 µM (inactive)	–	–	–
CN(C)CC/C(=N\Nc1c(Cl)cccc1Cl)c1ccccc1	15.3 µM (inactive)	31.1 µM (inactive)	–	17.7 µM	29.4 µM (inactive)	15.8 µM (inactive)	26.6 µM (inactive)	23.4 µM (inactive)	21 µM (inactive)	22.8 µM (inactive)	–	19.2 µM (inactive)	18.2 µM (inactive)	22.5 µM (inactive)	35.1 µM (inactive)	17.6 µM (inactive)	7.08 µM (inactive)	–	–	–
Cc1ccc(/N=C/c2ccc3c(c2)OCO3)cc1C	> 100 µM (inactive)	> 100 µM (inactive)	–	> 100 µM	–	> 100 µM (inactive)	> 100 µM (inactive)	> 100 µM (inactive)	> 100 µM (inactive)	> 100 µM (inactive)	> 100 µM (inactive)	> 100 µM (inactive)	> 100 µM (inactive)	> 100 µM (inactive)	> 100 µM (inactive)	> 100 µM (inactive)	> 100 µM (inactive)	–	–	–
O=C1CCC2CCOc3ccc(O)c1c32 (centres undefined)	> 100 µM (inactive)	> 100 µM (inactive)	> 100 µM (inactive)	> 100 µM	> 100 µM (inactive)	> 100 µM (inactive)	> 100 µM (inactive)	> 100 µM (inactive)	> 100 µM (inactive)	> 100 µM (inactive)	> 100 µM (inactive)	> 100 µM (inactive)	> 100 µM (inactive)	> 100 µM (inactive)	> 100 µM (inactive)	–	> 100 µM (inactive)	–	–	–
O=C(O)CC1CC=C[C@H]2c3cc4c(cc3C(=O)NC12)OCO4 (some centres undefined)	> 75 µM (inactive)	> 75 µM (inactive)	> 75 µM (inactive)	> 75 µM	> 75 µM (inactive)	–	> 75 µM (inactive)	> 75 µM (inactive)	> 75 µM (inactive)	> 75 µM (inactive)	> 75 µM (inactive)	> 75 µM (inactive)	–	> 75 µM (inactive)	> 75 µM (inactive)	> 75 µM (inactive)	> 75 µM (inactive)	–	–	–
CCCN(CCC)C(=O)c1nc(N)nc(-c2ccc(OC)cc2)c1-c1ccc(OC)cc1	> 100 µM (inactive)	> 100 µM (inactive)	–	> 100 µM	–	> 100 µM (inactive)	> 100 µM (inactive)	11.2 µM (inactive)	> 100 µM (inactive)	> 100 µM (inactive)	> 100 µM (inactive)	> 100 µM (inactive)	> 100 µM (inactive)	> 100 µM (inactive)	> 100 µM (inactive)	> 100 µM (inactive)	> 100 µM (inactive)	–	–	–
O=C1[C@H]2ON(c3ccccc3)C(c3ccco3)[C@H]2C(=O)N1c1ccc(Cc2ccc(N3C(=O)[C@@H]4ON(c5ccccc5)C(c5ccco5)[C@@H]4C3=O)cc2)cc1 (some centres undefined)	> 100 µM (inactive)	> 100 µM (inactive)	> 100 µM (inactive)	> 100 µM	> 100 µM (inactive)	> 100 µM (inactive)	> 100 µM (inactive)	> 100 µM (inactive)	> 100 µM (inactive)	> 100 µM (inactive)	> 100 µM (inactive)	> 100 µM (inactive)	> 100 µM (inactive)	> 100 µM (inactive)	–	> 100 µM (inactive)	> 100 µM (inactive)	–	–	–
CC12CC(=O)OC(Cc3ccccc31)O2 (centres undefined)	> 100 µM (inactive)	> 100 µM (inactive)	> 100 µM (inactive)	–	> 100 µM (inactive)	> 100 µM (inactive)	> 100 µM (inactive)	> 100 µM (inactive)	> 100 µM (inactive)	> 100 µM (inactive)	> 100 µM (inactive)	> 100 µM (inactive)	> 100 µM (inactive)	> 100 µM (inactive)	> 100 µM (inactive)	> 100 µM (inactive)	> 100 µM (inactive)	–	–	–
COc1cc(-c2cc(-c3cc([N+](=O)[O-])c(/C=N/NC(=O)c4ccncc4)o3)ccc2OC)ccc1C	> 100 µM (inactive)	> 100 µM (inactive)	> 100 µM (inactive)	–	> 100 µM (inactive)	> 100 µM (inactive)	> 100 µM (inactive)	–	> 100 µM (inactive)	> 100 µM (inactive)	> 100 µM (inactive)	> 100 µM (inactive)	> 100 µM (inactive)	> 100 µM (inactive)	> 100 µM (inactive)	> 100 µM (inactive)	–	–	–	–
COC(=O)C1=C(C)C(=O)C2(CCCCCC2C(=O)OC)C1 (centres undefined)	> 100 µM (inactive)	> 100 µM (inactive)	> 100 µM (inactive)	> 100 µM	68.7 µM (inactive)	> 100 µM (inactive)	> 100 µM (inactive)	> 100 µM (inactive)	> 100 µM (inactive)	–	> 100 µM (inactive)	> 100 µM (inactive)	> 100 µM (inactive)	> 100 µM (inactive)	> 100 µM (inactive)	> 100 µM (inactive)	> 100 µM (inactive)	–	–	–
COc1cc(O)c(C(=O)/C=C/c2ccc(OC)c(OCc3ccccc3)c2)c(OC)c1	> 100 µM (inactive)	> 100 µM (inactive)	46.9 µM (inactive)	10.3 µM	> 100 µM (inactive)	> 100 µM (inactive)	> 100 µM (inactive)	5.46 µM (inactive)	–	38.5 µM (inactive)	–	–	37.8 µM (inactive)	> 100 µM (inactive)	> 100 µM (inactive)	36.5 µM (inactive)	> 100 µM (inactive)	–	–	–
COC(=O)[C@@]12OC[C@]34C([C@@H](O)C1O)[C@@]1(C)CC(=O)C(O)=C(C)C1C[C@H]3OC(=O)[C@H](OC(=O)CC(C)C(F)(F)F)[C@H]42 (some centres undefined)	0.0646 µM (active)	0.0877 µM (active)	0.0105 µM (active)	0.166 µM	0.0989 µM (active)	0.0133 µM (active)	0.0168 µM (active)	0.0047 µM (active)	0.0101 µM (active)	–	0.0869 µM (active)	0.0121 µM (active)	0.0771 µM (active)	0.0514 µM (active)	0.00802 µM (active)	0.022 µM (active)	0.149 µM (active)	–	–	–
C=C1C(=O)O[C@@H]2C(=O)[C@@H](C)[C@@H]3C=CC(=O)[C@@]3(C)[C@@H](OC(=O)/C(C)=C\C)[C@H]12 [MULTISTATIN]	0.31 µM (active)	–	1.71 µM (inactive)	0.284 µM	11.9 µM (inactive)	0.371 µM (active)	1.48 µM (inactive)	0.41 µM (active)	0.298 µM (active)	0.653 µM (active)	1.69 µM (inactive)	0.278 µM (active)	2.86 µM (inactive)	13.1 µM (inactive)	12.9 µM (inactive)	0.361 µM (active)	1.21 µM (inactive)	0.394 µM (active)	1.88 µM (inactive)	0.483 µM (active)

Reference: ChEMBL document CHEMBL1201862, “PubChem BioAssay data set” (2004)
